Data taken from patent US20060122275A1, “Agentfor reducing side effects of diclofenac” (priority 2002, published 2006).

Tests used:
[1] = biological target: T1, EP3 receptor (Homo sapiens, UniProt P43115); conditions: stated in words, no test described; cited from earlier work
T1 sequence (P43115 1-390): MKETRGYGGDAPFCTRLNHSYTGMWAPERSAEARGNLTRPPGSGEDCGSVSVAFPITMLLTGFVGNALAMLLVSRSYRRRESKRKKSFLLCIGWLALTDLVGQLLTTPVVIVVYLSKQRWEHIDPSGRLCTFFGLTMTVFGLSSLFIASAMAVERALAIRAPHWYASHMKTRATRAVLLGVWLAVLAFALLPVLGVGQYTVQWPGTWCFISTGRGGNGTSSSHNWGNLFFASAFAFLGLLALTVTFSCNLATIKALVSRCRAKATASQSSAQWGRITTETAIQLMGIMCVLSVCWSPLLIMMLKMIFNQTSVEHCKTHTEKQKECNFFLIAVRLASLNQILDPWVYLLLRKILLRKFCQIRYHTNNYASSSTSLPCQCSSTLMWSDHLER

[2] = biological target: EP4 receptor (Homo sapiens, UniProt P35408); conditions: stated in words, no test described; cited from earlier work
Sequence of EP4 receptor (P35408 whole entry): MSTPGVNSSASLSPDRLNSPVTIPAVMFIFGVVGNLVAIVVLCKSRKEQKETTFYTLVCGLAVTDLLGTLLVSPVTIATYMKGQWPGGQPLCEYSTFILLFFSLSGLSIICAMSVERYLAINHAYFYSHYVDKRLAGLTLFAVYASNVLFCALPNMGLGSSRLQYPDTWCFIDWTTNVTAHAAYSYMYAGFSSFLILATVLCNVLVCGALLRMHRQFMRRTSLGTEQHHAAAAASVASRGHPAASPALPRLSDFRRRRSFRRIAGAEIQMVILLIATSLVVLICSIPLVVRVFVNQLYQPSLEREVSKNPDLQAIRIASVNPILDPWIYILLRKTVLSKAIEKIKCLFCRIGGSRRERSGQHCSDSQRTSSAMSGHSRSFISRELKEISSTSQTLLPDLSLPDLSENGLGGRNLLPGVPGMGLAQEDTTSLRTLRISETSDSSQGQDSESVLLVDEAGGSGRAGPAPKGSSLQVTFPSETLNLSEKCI

[3] = biological target: IP receptor (Homo sapiens, UniProt P43119); conditions: stated in words, no test described; cited from earlier work
Sequence of IP receptor (P43119 whole entry): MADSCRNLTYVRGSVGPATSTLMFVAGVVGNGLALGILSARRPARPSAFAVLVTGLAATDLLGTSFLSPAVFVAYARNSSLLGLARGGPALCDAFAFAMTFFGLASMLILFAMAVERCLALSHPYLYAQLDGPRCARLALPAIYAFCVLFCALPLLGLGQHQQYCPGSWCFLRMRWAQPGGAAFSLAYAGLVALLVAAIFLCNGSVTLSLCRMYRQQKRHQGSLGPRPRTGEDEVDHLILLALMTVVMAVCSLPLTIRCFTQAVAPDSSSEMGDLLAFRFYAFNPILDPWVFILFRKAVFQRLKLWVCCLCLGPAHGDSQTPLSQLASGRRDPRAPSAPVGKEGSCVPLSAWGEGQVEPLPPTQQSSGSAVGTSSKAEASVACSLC

[4] = biological target: T2, EP1 receptor (Homo sapiens, UniProt P34995); conditions: stated in words, no test described; cited from earlier work
T2 sequence (P34995 1-402): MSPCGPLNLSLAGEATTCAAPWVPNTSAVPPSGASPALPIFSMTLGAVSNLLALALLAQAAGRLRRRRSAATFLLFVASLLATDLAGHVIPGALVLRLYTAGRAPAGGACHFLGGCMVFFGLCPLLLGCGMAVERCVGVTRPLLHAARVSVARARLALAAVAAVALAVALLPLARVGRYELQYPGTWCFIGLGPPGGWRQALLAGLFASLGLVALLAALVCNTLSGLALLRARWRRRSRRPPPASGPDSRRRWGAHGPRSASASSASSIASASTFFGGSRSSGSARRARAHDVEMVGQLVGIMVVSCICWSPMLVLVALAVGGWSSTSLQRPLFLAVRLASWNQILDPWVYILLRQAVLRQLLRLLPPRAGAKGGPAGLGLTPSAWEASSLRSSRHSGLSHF

[5] = test system: glycerol-induced nephropathy; assay: Effect of ornoprostil on glycerol-induced nephropathy; format: in vivo, SPF/Crj line male rats; conditions: serum 48 hours after glycerol, rats
Method: SPF/Crj line male rats (9 week-old) were measured for their body weight and then divided into groups in such a manner that average of body weights of respective groups became almost uniform. A 50% glycerol solution (medium: physiological saline) (10 ml/kg) was administered by subcutaneous injection to each rat which had been abstained from water for 48 hours (±2 hours) but under feeding, and about 1.5 ml of blood was collected 48 hours thereafter from jugular vein under ether anesthesia. […] Water was provided 2 hours after the glycerol administration. The thus collected blood was centrifuged (about 4° C., 3,000 rpm, 15 minutes) to obtain serum. The thus obtained serum was subjected to the measurement of […] (to be referred to as UN) (urease-G1DH method) and creatinine (to be referred to as CRE) (creatininase-F-DAOS method) using a biochemical automatic analyzer (AU 400 (trade name), Olympus Optical).

[6] = test system: gastrointestinal mucous membrane; conditions: stated in words, no test described; cited from earlier work
[7] = test system: Mycobacterium butyricum-induced inflammation, squeaking reaction; assay: Analgesic effect in inflammation model (squeaking reaction); format: in vivo, Lew/Crj line male rats; conditions: OU administered vs OU un-administered group
Method: After measuring body weight of Lew/Crj line male rats, Mycobacterium butyricum cells suspended in liquid paraffin was administered by intracutaneous injection into the sole of left-side hind leg of each animal, under ether anesthesia at a dose of 0.1 ml/animal, thereby inducing inflammation. Also, this day was used as the 1st day of the inflammation induction treatment. […] Also, they were fasted for 16 to 24 hours under free water taking from the previous day of the measurement. […] A rat which was squeaking reaction-negative once or more by the 4 times of judgment after the sample liquid administration was judged analgesic effect-positive, and efficacy ratio (the number of animals having analgesic effect/the number of tested animals) was calculated. In addition, ulcer inhibition ratio was calculated in the same manner as described in (1).

[8] = test system: acid secretion; conditions: stated in words, no test described; cited from earlier work
[9] = GC (subcutaneous) + OU (3 μg) oral
[10] = GC (subcutaneous) + OU (10 μg) oral

SMILES | Affinity for EP3 receptor [1] | Affinity for EP4 receptor [2] | Affinity for IP receptor [3] | Affinity for EP1 receptor [4] | CRE [5, 9] [mg/dL] | UN [5, 9] [mg/dL] | CRE [5, 10] [mg/dL] | UN [5, 10] [mg/dL] | Site protection activity [6] | Influence of OU administration upon the analgesic effect of NSAID [7] | Acid secretion inhibitory activity [8]
CCCCC(C)(O)C/C=C/[C@H]1[C@H](O)CC(=O)[C@@H]1CCCCCCC(=O)O (mixture of isomers) [misoprostol active body] | strong | strong | hardly has affinity | weak |  |  |  |  |  |  | 
CCCC[C@H](C)C[C@H](O)/C=C/[C@H]1[C@H](O)CC(=O)[C@@H]1CC(=O)CCCCC(=O)OC [ornoprostil, 17S,20-dimethyl-6-oxo-prostaglandin E1 methyl ester] |  |  |  |  | 1.38 | 89.7 | 1.03 | 79.9 | strong | did not exert influence | weak
